Columns and labels:
Assay in all cases: IC50 cell viability (Alamar Blue, 96 h)
10326 = system: 10326
Procedure: (§1)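 Cells in log-phase growth were seeded in 96-well plates and treated with drug for 96 h at 37°C using 8-point serial dilutions from 0.0025 to 10 µM. Viability was read by Alamar Blue fluorescence after 6 h and normalised to positive and vehicle (DMSO) controls. IC50 values were fitted in ActivityBase; the value given is the mean of two independent experiments.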

11060 = system: 11060
Procedure: as §1

14169 = system: 14169
Procedure: as §1

8645 = system: 8645
Procedure: as §1

A549 = system: A549
Procedure: as §1

CAKI-1 = system: CAKI-1
Procedure: as §1

HCC2429 = system: HCC2429
Procedure: as §1

HS-27 = system: HS-27
Procedure: as §1

P896-CL = system: P896-CL
Procedure: as §1

PER-403 = system: PER-403
Procedure: as §1

PER-535 = system: PER-535
Procedure: as §1

PER-536 = system: PER-536
Procedure: as §1

PER-624 = system: PER-624
Procedure: as §1

PER-704 = system: PER-704
Procedure: as §1

PER-712 = system: PER-712
Procedure: as §1

PER-891 = system: PER-891
Procedure: as §1

RPMI2650 = system: RPMI2650
Procedure: as §1

TC797 = system: TC797
Procedure: as §1

TY82 = system: TY82
Procedure: as §1

WI-38 = system: WI-38
Procedure: as §1

IC50 cell viability (A549) | IC50 cell viability (HCC2429) | SMILES | IC50 cell viability 10326 | IC50 cell viability 11060 | IC50 cell viability 14169 | IC50 cell viability 8645 | IC50 cell viability (CAKI-1) | IC50 cell viability (HS-27) | IC50 cell viability (P896-CL) | IC50 cell viability (PER-403) | IC50 cell viability (PER-535) | IC50 cell viability (PER-536) | IC50 cell viability (PER-624) | IC50 cell viability (PER-704) | IC50 cell viability (PER-712) | IC50 cell viability (PER-891) | IC50 cell viability (RPMI2650) | IC50 cell viability (TC797) | IC50 cell viability (TY82) | IC50 cell viability (WI-38)
203 nM | 20.9 nM | CCN(CCCOc1ccc2c(Nc3cc(CC(=O)Nc4cccc(F)c4)[nH]n3)ncnc2c1)CCOP(=O)(O)O [Barasertib] | 11.7 nM | 37.6 nM | 7.07 nM | 986 nM | > 10000 nM | 1900 nM | 5010 nM | 19.4 nM | > 10000 nM | > 10000 nM | > 10000 nM | > 10000 nM | > 10000 nM | > 10000 nM | > 10000 nM | > 10000 nM | > 10000 nM | 6910 nM
2070 nM | 1170 nM | O=C(CCCCCCC(=O)Nc1ccccc1)NO [Vorinostat] | 514 nM | 2740 nM | 1220 nM | 561 nM | 4100 nM | 4290 nM | 3190 nM | 732 nM | 2440 nM | > 10000 nM | 1540 nM | 2140 nM | 3450 nM | > 10000 nM | 5840 nM | 7210 nM | 2240 nM | 4450 nM
9.64 nM | 7.62 nM | Nc1ccn([C@@H]2O[C@H](CO)[C@@H](O)C2(F)F)c(=O)n1 [Gemcitabine] | 14.7 nM | 9.77 nM | 6.73 nM | 12.4 nM | 135 nM | 137 nM | 29.6 nM | 4.92 nM | 5.26 nM | 5.38 nM | 6.22 nM | 36.2 nM | 49.2 nM | 568 nM | 3330 nM | 16.6 nM | 77.5 nM | 341 nM
61 nM | 40.3 nM | CN1CC[C@H](c2c(O)cc(O)c3c(=O)cc(-c4ccccc4Cl)oc23)[C@H](O)C1 [Flavopiridol] | 25.4 nM | 27.2 nM | 24.8 nM | 17.7 nM | 122 nM | 108 nM | 24.8 nM | 46.6 nM | 131 nM | 273 nM | 42.8 nM | 70.8 nM | 82.5 nM | 69.5 nM | 140 nM | 84.4 nM | 64.7 nM | 84.6 nM
249 nM | 229 nM | COc1cc(Nc2ncc3c(n2)-c2ccc(Cl)cc2C(c2c(F)cccc2OC)=NC3)ccc1C(=O)O [Alisertib] | 149 nM | 168 nM | 67.8 nM | 327 nM | 8100 nM | 5390 nM | 2410 nM | 38.1 nM | 37.4 nM | 1580 nM | 873 nM | 4880 nM | 306 nM | > 10000 nM | > 10000 nM | > 10000 nM | > 10000 nM | 6140 nM

SMILES | IC50 cell viability (A549) | IC50 cell viability (HCC2429) | IC50 cell viability 10326 | IC50 cell viability 11060 | IC50 cell viability 14169 | IC50 cell viability 8645 | IC50 cell viability (CAKI-1) | IC50 cell viability (HS-27) | IC50 cell viability (P896-CL) | IC50 cell viability (PER-403) | IC50 cell viability (PER-535) | IC50 cell viability (PER-536) | IC50 cell viability (PER-624) | IC50 cell viability (PER-704) | IC50 cell viability (PER-712) | IC50 cell viability (PER-891) | IC50 cell viability (RPMI2650) | IC50 cell viability (TC797) | IC50 cell viability (TY82) | IC50 cell viability (WI-38)
CC[C@@]1([C@@H]2O[C@@H]([C@H]3O[C@@](O)(CO)[C@H](C)C[C@@H]3C)C[C@@H]2C)CC[C@H]([C@]2(C)CC[C@]3(C[C@H](O)[C@@H](C)[C@@H]([C@@H](C)[C@@H](OC)[C@H](C)C(=O)O)O3)O2)O1 [Monensin] | 234 nM | 4880 nM | 817 nM | 3040 nM | 3510 nM | 4650 nM | > 10000 nM | 235 nM | 6830 nM | 5580 nM | > 10000 nM | > 10000 nM | 1420 nM | 9240 nM | 7480 nM | 5760 nM | > 10000 nM | 4080 nM | 5070 nM | 55 nM

— the supplement of paper PMC5762512
